Test results: patent US20230287027A1, “ADJUVANT WITH TLR4 AGONIST ACTIVITY” (Sumitomo Pharma Co., Ltd, priority 2020, published 2023)

Columns and labels:
mouse TLR4 = biological target: T1, mouse TLR4 (Mus musculus, UniProt Q9JHF9+Q9QUK6); assay: Mouse TLR4 reporter gene assay (Test 2); assay type: cell-based; conditions: HEK-Blue mTLR4 cell line, SEAP reporter, 37° C. 16-20 hours, 0.1% DMSO; concentration giving half of maximal SEAP level induced with LPS
T1 construct: host or cells: HEK-Blue mTLR4 cell line
T1 sequence (Q9QUK6 26-835): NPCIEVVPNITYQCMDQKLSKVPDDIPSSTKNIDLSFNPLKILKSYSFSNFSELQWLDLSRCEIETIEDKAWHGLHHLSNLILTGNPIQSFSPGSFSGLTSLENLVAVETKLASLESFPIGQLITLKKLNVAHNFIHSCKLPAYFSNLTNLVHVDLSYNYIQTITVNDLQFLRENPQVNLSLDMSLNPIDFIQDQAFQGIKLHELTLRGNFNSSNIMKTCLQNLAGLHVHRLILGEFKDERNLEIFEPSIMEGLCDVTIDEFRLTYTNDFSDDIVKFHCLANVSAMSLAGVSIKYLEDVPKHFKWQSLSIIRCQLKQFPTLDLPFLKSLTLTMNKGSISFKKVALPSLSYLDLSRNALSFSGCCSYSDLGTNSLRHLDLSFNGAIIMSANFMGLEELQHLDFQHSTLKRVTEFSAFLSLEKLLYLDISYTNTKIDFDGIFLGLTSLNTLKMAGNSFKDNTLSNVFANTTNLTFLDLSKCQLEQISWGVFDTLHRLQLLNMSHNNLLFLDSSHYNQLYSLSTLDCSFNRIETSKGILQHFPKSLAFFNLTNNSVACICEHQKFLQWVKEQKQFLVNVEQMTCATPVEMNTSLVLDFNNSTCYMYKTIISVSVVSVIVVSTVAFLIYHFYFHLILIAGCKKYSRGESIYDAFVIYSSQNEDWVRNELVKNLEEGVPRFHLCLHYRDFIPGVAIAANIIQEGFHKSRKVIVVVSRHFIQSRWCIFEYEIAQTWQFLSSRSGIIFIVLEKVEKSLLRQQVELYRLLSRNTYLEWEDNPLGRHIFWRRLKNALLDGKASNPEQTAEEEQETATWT
T1 sequence (Q9JHF9 19-160): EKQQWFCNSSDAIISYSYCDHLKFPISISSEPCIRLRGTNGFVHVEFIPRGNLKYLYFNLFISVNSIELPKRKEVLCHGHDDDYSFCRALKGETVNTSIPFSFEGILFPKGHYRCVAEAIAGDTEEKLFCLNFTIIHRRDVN
Excerpt: Mouse TLR4 Reporter Gene Assay
HEK-Blue™ mTLR4 cell line (Invivogen) is a stably co-transfected cell line which expresses mouse TLR4, MD2, CD14 and secretory SEAP reporter gene under the transcriptional regulation of an NF-κB response element. The TLR4 expression of the cell line has been already tested by RT-PCR, flow cytometry. Transfectants with stable expression were selected using the antibiotic HEK-Blue™ Selection. TLR signaling leads to the translocation of NF-κB and the activation of the promoter results in expression of the SEAP gene. TLR4-specific activation was assessed by determining the level of SEAP produced following incubation of the cells at 37° C. for 16-20 hours with each compound prepared in Examples and Reference examples in the presence of 0.1% (v/v) DMSO. The mouse TLR4 activity for the present compound was assessed by mouse TLR4 reporter gene assay, and the concentration of the compound concentration which produced half of the maximal level of SEAP induced with LPS was determined as EC50.

human TLR4 = biological target: T2, human TLR4 (Homo sapiens, UniProt O00206+Q9Y6Y9); assay: Human TLR4 reporter gene assay (Test 1); assay type: cell-based; conditions: HEK-Blue hTLR4 cell line, SEAP reporter, 37° C. 16-20 hours, 0.1% DMSO; concentration giving half of maximal SEAP level induced with LPS
T2 construct: host or cells: HEK-Blue hTLR4 cell line
Excerpt: Human TLR4 Reporter Gene Assay
HEK-Blue™ hTLR4 cell line (Invivogen Corporation) is a stably co-transfected cell line which expresses human TLR4, MD2, CD14, and secretory alkaline phosphatase (SEAP) reporter gene under the transcriptional regulation of an NF-κB response element. The TLR4 expression of the cell line has been already tested by RT-PCR, flow cytometry. Transfectants with stable expression were selected using the antibiotic HEK-Blue™ Selection. TLR signaling leads to the translocation of NF-κB and the activation of the promoter results in expression of the SEAP gene. TLR4-specific activation was assessed by determining the level of SEAP produced following incubation of the cells at 37° C. for 16-20 hours with each compound prepared in Examples and Reference examples in the presence of 0.1% (v/v) DMSO. The human TLR4 activity for the present compound was assessed by human TLR4 reporter gene assay, and the concentration of the compound concentration which produced half of the maximal level of SEAP induced with lipopolysaccharide (LPS) was determined as EC50.

T2 sequence (O00206 24-839): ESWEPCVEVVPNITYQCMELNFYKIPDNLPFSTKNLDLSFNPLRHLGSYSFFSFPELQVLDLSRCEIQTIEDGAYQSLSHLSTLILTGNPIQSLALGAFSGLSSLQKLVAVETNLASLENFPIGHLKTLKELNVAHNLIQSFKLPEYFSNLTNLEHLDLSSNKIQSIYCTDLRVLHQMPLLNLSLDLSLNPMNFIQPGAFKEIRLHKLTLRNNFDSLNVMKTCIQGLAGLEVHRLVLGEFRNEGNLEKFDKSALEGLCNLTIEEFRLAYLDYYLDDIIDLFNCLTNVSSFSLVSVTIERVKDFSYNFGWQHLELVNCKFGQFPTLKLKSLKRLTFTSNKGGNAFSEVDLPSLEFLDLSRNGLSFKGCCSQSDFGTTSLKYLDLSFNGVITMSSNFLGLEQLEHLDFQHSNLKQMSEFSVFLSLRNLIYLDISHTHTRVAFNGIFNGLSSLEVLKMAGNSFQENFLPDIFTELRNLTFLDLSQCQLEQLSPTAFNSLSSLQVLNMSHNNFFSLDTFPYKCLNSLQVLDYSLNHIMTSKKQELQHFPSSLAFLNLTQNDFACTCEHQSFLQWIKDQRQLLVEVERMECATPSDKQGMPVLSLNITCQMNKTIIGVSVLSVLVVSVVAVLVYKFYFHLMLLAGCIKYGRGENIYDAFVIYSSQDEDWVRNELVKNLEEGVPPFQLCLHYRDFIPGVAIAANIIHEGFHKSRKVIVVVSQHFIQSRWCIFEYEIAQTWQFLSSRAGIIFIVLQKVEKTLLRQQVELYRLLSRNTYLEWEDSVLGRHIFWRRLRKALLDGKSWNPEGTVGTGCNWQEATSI
T2 sequence (Q9Y6Y9 17-160 limits assumed): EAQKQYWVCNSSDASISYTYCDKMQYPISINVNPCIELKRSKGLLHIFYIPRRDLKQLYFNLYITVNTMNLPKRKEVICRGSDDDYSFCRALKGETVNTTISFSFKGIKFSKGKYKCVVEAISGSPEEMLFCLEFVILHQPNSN

EC50 (mouse TLR4) [nM] | EC50 (human TLR4) [nM] | mouse TLR4 EC50 (mouse TLR4) [µg/mL] | human TLR4 EC50 (human TLR4) [µg/mL] | Compound
50.3 | 457 |  |  | CCCCCCCCCCC[C@H](CC(=O)NC(COC1OC(CO)C(OP(=O)(O)O)C(OC(=O)C[C@@H](CCCCCCCCCCC)OC(=O)CCCCCCCCC)C1NC(=O)C[C@@H](CCCCCCCCCCC)OC(=O)CCCCCCCCc1ccccc1)C(=O)O)OC(=O)CCCCCCCCC (single isomer, unassigned) [compound 11]
> 645 | > 645 |  |  | CCCCCCCCCCC[C@H](CC(=O)NC(COC1OC(CO)C(OP(=O)(O)O)C(OC(=O)C[C@@H](CCCCCCCCCCC)OC(=O)CCCCCCCCC)C1NC(=O)C[C@@H](CCCCCCCCCCC)OC(=O)CCCCCCCCc1ccccc1)C(=O)O)OC(=O)CCCCCCCCC (single isomer, unassigned) [compound 12]
137 | 161 |  |  | CCCCCCCCCCC[C@H](CC(=O)NC1C(OC[C@@H](NC(=O)C[C@@H](CCCCCCCCCCC)OC(=O)CCCCCCCCC)C(=O)O)OC(CO)C(O)C1OC(=O)C[C@@H](CCCCCCCCCCC)OC(=O)CCCCCCCCC)OC(=O)CCCCCCCCc1ccccc1 (stereo partly drawn) [Example 3, (2R)-2-{[(3R)-3-(decanoyloxy)tetradecanoyl]amino}-3-{[4-{[(3R)-3-(decanoyloxy)tetradecanoyl]oxy}-5-hydroxy-6-(hydroxymethyl)-3-({(3R)-3-[(9-phenylnonanoyl)oxy]tetradecanoyl}amino)oxan-2-yl]oxy}propanoic acid]
49.7 | 101 |  |  | CCCCCCCCCCC[C@H](CC(=O)NC(COC1OC(CO)C(O)C(OC(=O)C[C@@H](CCCCCCCCCCC)OC(=O)CCCCCCCCC)C1NC(=O)C[C@@H](CCCCCCCCCCC)OC(=O)CCCCCCCCC)C(=O)O)OC(=O)CCCCCCCCc1ccccc1 (stereo partly drawn) [Example 5, (2S)-2-({[(3R)-3-(9-phenylnonanoyl)oxy]tetradecanoyl}amino)-3-{[3-{[(3R)-3-(decanoyloxy)tetradecanoyl]amino}-5-hydroxy-6-(hydroxymethyl)-4-({(3R)-3-(decanoyloxy)tetradecanoyl}oxy)oxan-2-yl]oxy}propanoic acid]
12.9 | 12.9 |  |  | CCCCCCCCCCC[C@H](CC(=O)NC(COC1OC(CO)C(OP(=O)(O)O)C(OC(=O)C[C@@H](CCCCCCCCCCC)OC(=O)CCCCCCCCc2ccccc2)C1NC(=O)C[C@@H](CCCCCCCCCCC)OC(=O)CCCCCCCCC)C(=O)O)OC(=O)CCCCCCCCC (stereo partly shown) [Reference example 10]
13.5 | 34.2 |  |  | CCCCCCCCCCC[C@H](CC(=O)NC(COC1OC(CO)C(OP(=O)(O)O)C(OC(=O)C[C@@H](CCCCCCCCCCC)OC(=O)CCCCCCCCC)C1NC(=O)C[C@@H](CCCCCCCCCCC)OC(=O)CCCCCCCCC)C(=O)O)OC(=O)CCCCCCCCc1ccccc1 (stereo partly shown) [compound 13]
14.2 | 14.2 |  |  | CCCCCCCCCCC[C@H](CC(=O)NC(COC1OC(CO)C(OP(=O)(O)O)C(OC(=O)C[C@@H](CCCCCCCCCCC)OC(=O)CCCCCCCCC)C1NC(=O)C[C@@H](CCCCCCCCCCC)OC(=O)CCCCCCCCC)C(=O)O)OC(=O)CCCCCCCCc1ccccc1 (stereo partly shown) [compound 14]
 |  | 0.057 | 0.077 | (2R)-2-({[(3R)-3-(9-phenylnonanoyl)oxy]tetradecanoyl}amino)-3-{[3-{[(3R)-3-(decanoyloxy)tetradecanoyl]amino}-5-hydroxy-6-(hydroxymethyl)-4-({(3R)-3-(decanoyloxy)tetradecanoyl}oxy)oxan-2-yl]oxy}propanoic acid [Example 4]
